Source: US9328138B2 (priority 2011, dated 2016)

What was measured:
[1] = target: T1, HCV genotype 1b (BK) NS3 modified enzyme with a R155K mutation (Hepatitis C virus genotype 1b, UniProt P26663, R1181K); test: HCV NS3 protease time-resolved fluorescence (TRF) assay, genotype 1b R155K; assay type: biochemical; conditions: Ki 1b R155K
T1 construct: HCV genotype 1b (BK) NS3 modified enzyme
Summary of the method: (§1)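 Pre-incubation of NS3/NS4A protease with inhibitor for 10 min in pH 7.5 HEPES buffer with 10 mM DTT; 25 nM TRF peptide substrate, hydrolysis 6 h at room temperature. Fluorescence read at ex 340/em 615 nm with 400 μs delay, enzyme level set for S/B 5-20; IC50 by four-parameter fit.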

[2] = target: HCV NS3 protease genotype 3a (3A-1) (Hepatitis C virus genotype 3a, UniProt Q81258); test: HCV NS3 protease time-resolved fluorescence (TRF) assay, genotype 3a; assay type: biochemical; conditions: Ki 3a
Summary of the method: as §1

[3] = genotype 1b (BK) NS3 R155K, single value
[4] = first of two values printed in the cell (not explained)
[5] = second of two values printed in the cell (not explained)

C=C[C@@H]1C[C@]1(NC(=O)[C@@H]1C[C@@H]2CN1C(=O)[C@H](C(C)(C)C)NC(=O)O[C@@H]1C[C@H]1CCCCCc1c(nc3cc(C(C)C)ccc3c1OCCCN1CCCC1)O2)C(=O)NS(=O)(=O)C1(C)CC1 [Example 159, (1aR,5S,8S,10R,22aR)-5-tert-butyl-N-[(1R,2S)-2-ethenyl-1-{[(1-methylcyclopropyl)sulfonyl]carbamoyl}cyclopropyl]-3,6-dioxo-14-(propan-2-yl)-17-[3-(pyrrolidin-1-yl)propoxy]-1,1a,3,4,5,6,9, 10,18,19,20,21,22,22a-tetradecahydro-8H-7,10-methanocyclopropa[18,19] [1,10,3,6]dioxadiazacyclononadecino [11,12-b]quinoline-8-carboxamide]
Ki [1, 3]: 0.05 nM
Ki [2]: 0.53 nM

C=C[C@@H]1C[C@]1(NC(=O)[C@@H]1C[C@@H]2CN1C(=O)[C@H](C1CCCC1)NC(=O)O[C@@H]1CCC[C@H]1CC/C=C/Cc1c(nc3ccc(Br)cc3c1O)O2)C(=O)NS(=O)(=O)C1CC1 [Example 22, (3aR,7S,10S,12R,21E,24aS)-17-bromo-7-cyclopentyl-N-{(1R,2S)-1-[(cyclopropylsulfonyl)carbamoyl]-2-ethenylcyclopropyl}-19-hydroxy-5,8-dioxo-1,2,3,3a,5,6,7,8,11,12,20,23,24,24a-tetradecahydro-10H-9,12-methanocyclopenta[18,19][1,10,3,6]dioxadiazacyclononadecino[11,12-b]quinoline-10-carboxamide]
Ki [1, 3]: 0.33 nM
Ki [2]: 9.3 nM

C=C[C@@H]1C[C@]1(NC(=O)[C@@H]1C[C@@H]2CN1C(=O)[C@H](C1CCCC1)NC(=O)O[C@@H]1CCC[C@H]1CC/C=C/Cc1c(nc3ccccc3c1OCCCN1CCOCC1)O2)C(=O)NS(=O)(=O)C1CC1 [Example 87, (3aR,7S,10S,12R,21E,24aS)-7-cyclo pentyl-N-{(1R,2S)-1-[(cyclopropylsulfonyl)carbamoyl]-2-ethenylcyclopropyl}-19-[3-(morpholin-4-yl)propoxy]-5,8-dioxo-1,2,3,3a,5,6,7,8,11,12,20,23,24, 24a-tetradeca hydro-10H-9,12-methano cyclopenta[18,19][1,10,3,6] dioxadiazacyclononadecino [11,12-b]quinoline-10-carboxamide]
Ki [1, 3]: 0.24 nM
Ki [2]: 3.2 nM

C=C[C@@H]1C[C@]1(NC(=O)[C@@H]1C[C@@H]2CN1C(=O)[C@H](C1CCCCC1)NC(=O)O[C@@H]1C[C@H]1CCCCCc1c(nc3ccccc3c1OCCCN1CC[C@@H](O)C1)O2)C(=O)NS(=O)(=O)C1(C)CC1 [Example 169, (1aR,5S,8S,10R,22aR)-5-cyclohexyl-N-[(1R,2S)-2-ethenyl-1-{[(1-methylcyclopropyl)sulfonyl]carbamoyl}cyclopropyl]-17-{3-[(3R)-3-hydroxypyrrolidin-1-yl]propoxy}-3,6-dioxo-1,1a,3,4,5,6,9,10, 18,19,20,21,22,22a-tetradeca hydro-8H-7,10-methanocyclopropa[18,19][1,10,3,6] dioxadiazacyclononadecino[11,12-b] quinoline-8-carboxamide]
Ki [1, 3]: 0.042 nM
Ki [2]: 0.75 nM

C=C[C@@H]1C[C@]1(NC(=O)[C@@H]1C[C@@H]2CN1C(=O)[C@H](C(C)(C)C)NC(=O)O[C@@H]1C[C@H]1CCCCCc1c(nc3ccccc3c1OCCCN1CC(F)C1)O2)C(=O)NS(=O)(=O)C1(C)CC1 [Example 155, (1aR,5S,8S,10R,22aR)-5-tert-butyl-N-[(1R,2S)-2-ethenyl-1-{[(1-methylcyclopropyl)sulfonyl]carbamoyl}cyclopropyl]-17-[3-(3-fluoroazetidin-1-yl)propoxy]-3,6-dioxo-1,1a,3,4,5,6,9,10,18,19,20, 21,22,22a-tetradecahydro-8H-7,10-methanocyclopropa[18,19][1,10,3,6] dioxadiazacyclononadecino [11,12-b]quinoline-8-carboxamide]
Ki [1, 3]: 0.11 nM
Ki [2]: 1.4 nM

C=C[C@@H]1C[C@]1(NC(=O)[C@@H]1C[C@@H]2CN1C(=O)[C@H](C(C)(C)C)NC(=O)O[C@@H]1C[C@H]1CCCCCc1c(nc3ccccc3c1OCCCN1CCN(C)CC1)O2)C(=O)NS(=O)(=O)C1(C)CC1 [Example 131, (1aR,5S,8S,10R,22aR)-5-tert-butyl-N-[(1R,2S)-2-ethenyl-1-{[(1-methylcyclopropyl)sulfonyl]carbamoyl}cyclopropyl]-17-[3-(4-methylpiperazin-1-yl)propoxy]-3,6-dioxo-1,1a,3,4,5,6,9,10,18,19,20,21,22,22a-tetradecahydro-8H-7,10-methanocyclopropa[8,19][1,10,3,6]dioxadiazacyclononadecino[11,12-b]quinoline-8-carboxamide]
Ki [1, 3]: 0.11 nM
Ki [2]: 1.3 nM

C=C[C@@H]1C[C@]1(NC(=O)[C@@H]1C[C@@H]2CN1C(=O)[C@H](C1CCCC1)NC(=O)O[C@@H]1CCC[C@H]1CC/C=C/Cc1c(nc3ccccc3c1OCCCO)O2)C(=O)NS(=O)(=O)C1CC1 [Example 72, (3aR,7S,10S,12R,21E,24aS)-7-cyclopentyl-N-{(1R,2S)-1-[(cyclopropylsulfonyl)carbamoyl]-2-ethenylcyclopropyl}-19-(3-hydroxypropoxy)-5,8-dioxo-1,2,3,3a,5,6,7,8,11,12,20,23,24,24a-tetradecahydro-10H-9,12-methanocyclopenta[18,19][1,10,3,6]dioxadiazacyclononadecino[11,12-b]quinoline-10-carboxamide]
Ki [1, 3]: < 0.016 nM
Ki [2]: 1.1 nM

C=C[C@@H]1C[C@]1(NC(=O)[C@@H]1C[C@@H]2CN1C(=O)[C@H](C1CCCCC1)NC(=O)O[C@@H]1C[C@H]1CCCCCc1c(nc3c(F)cccc3c1OC1CCN(C)CC1)O2)C(=O)NS(=O)(=O)C1(C)CC1 [Example 286, (1aR,5S,8S,10R,22aR)-5-cyclohexyl-N-[(1R,2S)-2-ethenyl-1-{[(1-methylcyclopropyl)sulfonyl]carbamoyl}cyclopropyl]-13-fluoro-17-[(1-methylpiperidin-4-yl)oxy]-3,6-dioxo-1,1a,3,4,5,6,9,10,18,19,20,21,22,22a-tetradecahydro-8H-7,10-methanocyclopropa[18,19][1,10,3,6]dioxadiazacyclononadecino[11,12-b]quinoline-8-carboxamide]
Ki [1, 4]: 0.022 nM
Ki [1, 5]: 0.094 nM
Ki [2]: 0.515 nM

C=C[C@@H]1C[C@]1(NC(=O)[C@@H]1C[C@@H]2CN1C(=O)[C@H](C1CCCC1)NC(=O)O[C@@H]1CCC[C@H]1CC/C=C/Cc1c(nc3ccccc3c1OC)O2)C(=O)NS(=O)(=O)C1CC1 [Example 4, (3aR,7S,10S,12R,21E,24aS)-7-cyclo pentyl-N-{(1R,2S)-1-[(cyclopropylsulfonyl)carbamoyl]-2-ethenylcyclopropyl}-19-methoxy-5,8-dioxo-1,2,3,3a,5,6,7,8,11,12,20,23,24,24a-tetradeca hydro-10H-9,12-methanocyclopenta[18,19][1,10,3,6] dioxadiazacyclononadecino[11,12-b]quinoline-10-carboxamide]
Ki [1, 3]: 0.11 nM
Ki [2]: 3.4 nM

C=C[C@@H]1C[C@]1(NC(=O)[C@@H]1C[C@@H]2CN1C(=O)[C@H](C(C)(C)C)NC(=O)O[C@@H]1C[C@H]1CCCCCc1c(nc3ccccc3c1OCCN1CC3(CCC3)C1)O2)C(=O)NS(=O)(=O)C1(C)CC1 [Example 136, (1aR,5S,8S,10R,22aR)-17-[2-(2-azaspiro[3.3]hept-2-yl)ethoxy]-5-tert-butyl-N-[(1R,2S)-2-ethenyl-1-{[(1-methylcyclopropyl)sulfonyl]carbamoyl}cyclopropyl]-3,6-dioxo-1,1a,3,4,5,6,9,10,18,19,20,21,22,22a-tetradecahydro-8H-7,10-methanocyclopropa[18,19][1,10,3,6] dioxadiazacyclononadecino [11,12-b]quinoline-8-carboxamide]
Ki [1, 3]: 0.58 nM
Ki [2]: 5.1 nM

C=C[C@@H]1C[C@]1(NC(=O)[C@@H]1C[C@@H]2CN1C(=O)[C@H](C(C)(C)C)NC(=O)O[C@@H]1C[C@H]1CCCCCc1c(nc3ccccc3c1OCCCN1CCOCC1)O2)C(=O)NS(=O)(=O)C1(C)CC1 [Example 116, (1aR,5S,8S,10R,22aR)-5-tert-butyl-N-[(1R,2S)-2-ethenyl-1-{[(1-methylcyclopropyl)sulfonyl]carbamoyl}cyclopropyl]-17-[3-(morpholin-4-yl)propoxy]-3,6-dioxo-1,1a,3,4,5,6,9,10,18,19,20,21, 22,22a-tetradeca hydro-8H-7,10-methanocyclopropa [18,19][1,10,3,6]dioxadiazacyclo nonadecino[11,12-b]quinoline-8-carboxamide]
Ki [1, 3]: 0.17 nM
Ki [2]: 1.6 nM

C=C[C@@H]1C[C@]1(NC(=O)[C@@H]1C[C@@H]2CN1C(=O)[C@H](C(C)(C)C)NC(=O)O[C@@H]1C[C@H]1CCCCCc1c(nc3ccccc3c1OC1C3COCC1CN(C(=O)OC(C)(C)C)C3)O2)C(=O)NS(=O)(=O)C1(C)CC1 (single isomer, unassigned) [Example 254]
Ki [1, 4]: 0.116 nM
Ki [1, 5]: 2.3 nM
Ki [2]: 47.5 nM

C=C[C@@H]1C[C@]1(NC(=O)[C@@H]1C[C@@H]2CN1C(=O)[C@H](C(C)(C)C)NC(=O)O[C@@H]1C[C@H]1CCCCCc1c(nc3ccccc3c1OCC1CCN(CC)CC1)O2)C(=O)NS(=O)(=O)C1(C)CC1 [Example 227, (1aR,5S,8S,10R,22aR)-5-tert-butyl-N-[(1R,2S)-2-ethenyl-1-{[(1-methylcyclopropyl)sulfonyl]carbamoyl}cyclopropyl]-17-[(1-ethylpiperidin-4-yl)methoxy]-3,6-dioxo-1,1a,3,4,5,6,9,10,18,19,20,21,22,22a-tetradecahydro-8H-7,10-methanocyclopropa[18,19][1,10,3,6] dioxadiazacyclononadecino[11,12-b]quinoline-8-carboxamide]
Ki [1, 3]: 0.095 nM
Ki [2]: 0.36 nM
